# Data from patent publication US12661347B2 (Dr. Falk Pharma GmbH, priority 2020, dated 2026).
# Where two headings read alike, the source gives them in different places.
# Tests used:
# TG2 = molecular target: T1, TG2 (Homo sapiens, UniProt P21980); assay: Correlation of human pharmacokinetic data with in vitro TG2 inhibition (TG2-mediated deamidation of gluten)
# T1 sequence (P21980 1-687): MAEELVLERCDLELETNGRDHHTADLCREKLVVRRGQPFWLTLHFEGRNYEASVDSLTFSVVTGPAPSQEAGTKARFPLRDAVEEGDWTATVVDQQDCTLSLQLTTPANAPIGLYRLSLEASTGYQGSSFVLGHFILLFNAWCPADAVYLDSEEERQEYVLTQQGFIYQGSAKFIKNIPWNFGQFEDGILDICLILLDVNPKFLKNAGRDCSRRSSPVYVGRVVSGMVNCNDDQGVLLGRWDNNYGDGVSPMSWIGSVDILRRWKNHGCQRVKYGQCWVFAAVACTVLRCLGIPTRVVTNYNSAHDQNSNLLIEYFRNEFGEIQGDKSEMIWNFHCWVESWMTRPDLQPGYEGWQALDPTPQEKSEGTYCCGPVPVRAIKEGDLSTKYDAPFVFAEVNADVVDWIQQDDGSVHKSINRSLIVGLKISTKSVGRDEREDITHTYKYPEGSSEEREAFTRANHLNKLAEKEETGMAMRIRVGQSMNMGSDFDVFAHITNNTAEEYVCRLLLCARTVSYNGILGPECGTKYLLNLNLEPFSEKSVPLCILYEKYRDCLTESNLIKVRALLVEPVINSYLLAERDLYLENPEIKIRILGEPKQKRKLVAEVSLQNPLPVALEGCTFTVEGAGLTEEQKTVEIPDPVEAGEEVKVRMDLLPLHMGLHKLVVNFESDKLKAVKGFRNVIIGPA
# From the text: For the estimation of the therapeutic effective human dose, the drug concentration determined in vivo is compared with the drug concentrations resulting in an inhibition of the enzyme activity of TG2 in vitro (FIG. 2). Thereby, the TG2-mediated deamidation of gluten serves as a marker reaction. […] The 90% inhibition at IC90 can be regarded as maximal pharmacodynamic effect.
# [1] = Saturation solubility in the pH-range 1 to 6.8 (HPLC/UV); assay type: physicochemical
# [2] = Side effects in humans at doses of up to 500 mg; assay type: in vivo
# Method: Moreover, side effects related to potential off-target actions were not observed in humans even at doses of up to 500 mg. As aforementioned, this is particularly surprising due to the fact that TG2 is ubiquitously expressed in almost all cell types and cell compartments, it is present on the cell surface and gets secreted to the extracellular matrix, and is present in various organs, and thus it could be envisioned that off-target effects would be most likely.
# [3] = molecular target: T2, small intestinal tissue transglutaminase (TG2) (Mus musculus, UniProt P21981); details: plain, unformulated compound, cited from earlier work
# T2 construct: from tissue; host or cells: small intestine (jejunum) and colon of the treated animals
# T2 sequence (P21981 1-686): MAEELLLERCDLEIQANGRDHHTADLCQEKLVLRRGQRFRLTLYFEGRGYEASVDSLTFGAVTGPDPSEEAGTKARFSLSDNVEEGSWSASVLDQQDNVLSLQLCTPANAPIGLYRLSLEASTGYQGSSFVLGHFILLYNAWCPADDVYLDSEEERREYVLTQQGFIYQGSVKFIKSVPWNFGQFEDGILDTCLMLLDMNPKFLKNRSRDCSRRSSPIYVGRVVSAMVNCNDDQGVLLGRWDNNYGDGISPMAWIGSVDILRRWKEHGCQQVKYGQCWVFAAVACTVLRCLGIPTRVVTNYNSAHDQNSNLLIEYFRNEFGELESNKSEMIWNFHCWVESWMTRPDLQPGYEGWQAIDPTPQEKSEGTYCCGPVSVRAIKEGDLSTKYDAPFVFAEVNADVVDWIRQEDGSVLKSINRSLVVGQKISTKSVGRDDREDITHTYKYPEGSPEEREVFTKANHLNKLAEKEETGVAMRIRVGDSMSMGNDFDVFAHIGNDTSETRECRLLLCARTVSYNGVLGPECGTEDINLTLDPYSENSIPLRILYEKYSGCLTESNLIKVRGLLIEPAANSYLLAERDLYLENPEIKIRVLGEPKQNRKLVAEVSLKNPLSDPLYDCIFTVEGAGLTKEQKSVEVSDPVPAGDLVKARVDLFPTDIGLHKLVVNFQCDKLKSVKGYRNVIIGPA
# [4] = Simulation of the gastrointestinal tract, transfer model (donor medium to FaSSIF acceptor medium); assay type: physicochemical
# Method: The solubility of the dose as well as the dissolution velocity under physiological conditions are critical parameters for the oral availability at the target site.
# The transfer model consists of a vessel with 125 ml donor medium and a vessel with 500 m acceptor medium. The donor medium is transferred by means of pump (Piston pump Sotax CP7) in the acceptor medium so that 625 ml liquid is present in the acceptor vessel at the end of the experiment. The transfer rate amounts 10 ml/min. The donor medium is an artificial gastric juice in a sober state, and contains 34.2 mM sodium chloride (NaCl) in 0.1 hydrogen chloride (HCl). The acceptor medium consists of artificial […] in a sober state (FaSSIF) and contains 3 mM sodium taurocholate, and […] lecithine in phosphate buffer with a pH-value of 6.5. The temperature of the acceptor medium is adjusted to 37.5° C.±0.5° C. For the simulation of the gastrointestine motility, the acceptor medium is stirred continuously with a stirring paddle (50 rpm). A calibrated stirring paddle apparatus 2 according to the conditions of the USP (Sotax AT7 Smart) as an acceptor vessel is used. In FIG. 5, a scheme of the apparatus is illustrated.
# The capsule was added to the donor medium.
# [5] = tested on: adult patients with Celiac Disease (CeD); assay: 6-week treatment of adult Celiac Disease patients challenged with 3 g daily gluten, placebo-controlled; assay type: in vivo, human
# Method: Patients, who were in clinical and histological remission at start of the study were challenged with 3 grams daily gluten intake and randomized to receive placebo or one of 3 doses of the compound of formula (I), i.e. 10 mg, 50 mg or 100 mg.
# Each morning after at least 6 hours of fasting, patients took the study drug orally, followed by one biscuit containing 3 g of gluten 30 minutes later, before breakfast. Throughout the 6-week study, patients were required to continue their strict gluten free diet.
# The primary endpoint of the study was, whether the compound of formula (I) could prevent gluten-induced change in intestinal mucosal morphology. Before start (baseline) and after end of the 6 weeks of treatment endoscopies were conducted by an experienced gastroenterologist. Four endoscopy forceps biopsy samples with one biopsy bite per pass were taken from the second and third part of the duodenum and preserved in a PAXgene fixative containers. Tissue slides of the biopsies were scanned as whole-slide images and the villous height (VH) and crypt depth (CrD) in the mucosal samples were measured. In addition, the density of CD3+ intra-epithelial lymphocytes (IELs), an indicator of inflammation, was counted. Symptoms of CeD the patients were recorded by patient-reported outcomes (PROs) and measured by the Celiac Symptom Index (CSI) (Ref1) and Celiac Disease Questionnaire (CDQ) (Ref2).
# [6] = Pharmacokinetic after oral administration of the systemic formulation in healthy volunteers (plasma, HPLC-MS/MS); assay type: in vivo, human
# Method: The pharmacokinetic of (S,E)-methyl-7-(1-(2-(2-ethylbutylamino)-2-oxoethyl)-2-oxo-1,2-dihydro-pyridin-3-ylamino)-6-(1-methyl-1H-imidazole-5-carboxamido)-7-oxohept-2-enoate (compound of formula (I)) was investigated in healthy volunteers. Cohorts of 18 subjects each were treated with an oral daily dose of 10, 20, 50 and 100 mg compound of formula (I), respectively over a time period of 7 days.
# The determination of said compound in blood plasma was performed by means of a previously validated HPLC-MS/MS method.
# [7] = Comparison of Cmax of the formulation (human) with the plain compound (animals), doses as human-equivalent-dose; assay type: in vivo, human; monkeys, pigs, rabbits, rats and mice; details: formulation in human vs drug as suspension in animals
# Method: Due to regulatory and ethical reasons pharmacokinetic data with the plain compound were only generated in animals but not in human subjects. The pharmacokinetic data of the plain compound were derived from several studies in monkeys, pigs, rabbits, rats and mice. In all studies the compound was administered orally after suspension in 0.5% (w/v) methylcellulose in water, pH 5±0.5. Blood samples were taken at various time points within 24 h after drug administration and quantified by means of a previously validated HPLC-MS/MS method. […] In order to compile the data from different species, doses were converted into human-equivalent-dose (HED) taking into account differences in the body surface area between species. The widely accepted species-specific conversion factors defined in the FDA guideline “Estimating the Maximum Safe Starting Dose in Initial Clinical Trials for Therapeutics in Adult Healthy Volunteers” (Issue date 2005) were used.
smiles,measurement,setting,value
"CCC(CC)CNC(=O)Cn1cccc(NC(=O)[C@H](CC/C=C/C(=O)OC)NC(=O)c2cncn2C)c1=O [(S,E)-methyl-7-(1-(2-(2-ethylbutylamino)-2-oxoethyl)-2-oxo-1,2-dihydro-pyridin-3-ylamino)-6-(1-methyl-1H-imidazole-5-carboxamido)-7-oxohept-2-enoate]",dose sufficient to achieve a therapeutic effective drug concentration,TG2; human,20 to 50 mg
"CCC(CC)CNC(=O)Cn1cccc(NC(=O)[C@H](CC/C=C/C(=O)OC)NC(=O)c2cncn2C)c1=O [compound of formula (I), (S,E)-methyl-7-(1-(2-(2-ethylbutylamino)-2-oxoethyl)-2-oxo-1,2-dihydro-pyridin-3-ylamino)-6-(1-methyl-1H-imidazole-5-carboxamido)-7-oxohept-2-enoate]",saturation solubility at pH=6.8 (duodenum) compared with pH~1,[1],much lower
same,side effects related to potential off-target actions,[2],not observed
same,activity of intestinal TG2,[3]; TG2 activated by poly(I:C),reduced the activity of intestinal TG2 to normal levels
same,intestinal inflammation,[3],subdued intestinal inflammation
same,safety of administration,[3],safe
same,solubility,"[4]; FaSSIF (acceptor medium), FaSSIF, phosphate buffer pH 6.5, read-out: solubility in the acceptor medium",200 µg/mL
same,solubility,"[4]; FaSSIF medium, pH 6.5, fassif, thermodynamic from solid, pH-value of 6.5, read-out: saturation solubility of the pure drug",180 µg/mL
same,solubility,"[4]; artificial gastric juice, sober state (donor medium), simulated gastric fluid, 34.2 mM NaCl in 0.1 HCl, read-out: solubility in the donor medium",4400 µg/mL
same,drug level in vivo compared with in vitro TG2 inhibition,TG2; dose of 10 mg,half maximal inhibition (IC50) of TG2 is already achieved
same,drug level in vivo compared with in vitro TG2 inhibition,TG2; dose of 50 mg of the new developed formulation,exceeding the IC90
same,effect of gluten on VH:CrD (mucosal deterioration),"[5]; 10 mg dose, baseline to week 6",prevented mucosal deterioration to a lesser degree
same,"CDQ scores, change from baseline to week 6","[5]; 10 mg, 50 mg and 100 mg groups, increase = better quality of life",increased
same,effect of gluten on VH:CrD (villus height-to-crypt depth ratio),"[5]; daily dose 50 mg, baseline to week 6",almost completely prevented the deleterious effect of gluten on VH:CrD
same,effect of gluten on VH:CrD (villus height-to-crypt depth ratio),"[5]; daily dose 100 mg, baseline to week 6",almost completely prevented the deleterious effect of gluten on VH:CrD
same,gluten-induced symptoms and quality of life,[5]; hard gelatine capsule formulation of example 2,significantly improved
same,safety profile (frequency and severity of adverse events),"[5]; hard gelatine capsule formulation of example 2, 6 weeks",comparable to placebo
same,intestinal mucosal injury,"[5]; hard gelatine capsule formulation of example 2, moderate dose of daily gluten",effectively prevented intestinal mucosal injury
same,increase of drug concentration with dose,"[6]; dose range 10-100 mg, formulation",dose-proportionally
same,Tmax,"[6]; human, plasma, oral daily dose 10, 20, 50, 100 mg for 7 days, hard gelatine capsule of example 2, read-out: tmax (maximum of plasma drug level after administration)",~1 h
same,drug concentration normalized to body weight versus animal studies with suspension,[7],remarkably higher
